Here are results for 2 substances from patent publication US6355785B1, “Guanosine-rich oligonucleotide integrase inhibitors” (Aronex Pharmaceuticals, Inc., priority 1993, dated 2002).

One series concerns the target HIV-1 RT (Human immunodeficiency virus type 1 group M subtype B, UniProt P04585). Nature of the series: In vitro inhibition of HIV-1 RT (kinetic analysis). In kind it is biochemical. The following applies: for IC50: read-out: ID50 (the source's name).
In series [1] the target is HIV-1 gp120 interaction with CD4 (Human immunodeficiency virus type 1 group M subtype B, UniProt P04578).
Series [2] relates to SUP T1 cells. The series can be described thus: Cytotoxicity assay, CellTiter 96 (MTS), SUP T1 cells. The following applies: read-out: TC50 (concentration reducing cell proliferation by 50%); SUP T1, dye (MTS) metabolism assay.
In another series the test system is HIV-1 strain DV. The series can be described thus: HIV-1 induced syncytia formation assay in SUP T1 cells. In kind it is cell-based.
Another series deals with HIV-1DV. The series can be described thus: HIV-1 p24 production in SUP T1 cells. The series is classed as cell-based.
For series [3], the system named is SUP T1 cells.
Where [4] appears, read: read-out: ID50 [CD4], oligo binding to immobilized CD4.
Where [5] appears, read: read-out: ID50 [gp 120], oligo preincubated with soluble gp120.
Setting [6] is: SUP T1, HIV-1 DV, read-out: IC50 in anti-HIV-1 syncytia formation assay.

Like-named read-outs stand apart in the source and are kept apart here. Where only a bound is given, the exact number is not on record here.

Broadly, the Ki is a dissociation constant, usually derived from enzyme kinetics or from competition with a known ligand.

Take “5′-gttgggggttgttggtggggtggtgg-3′ [I100-00] (DNA GTTGGGGGTTGTTGGTGGGGTGGTGG; phosphorodiamidate backbone, further chemistry not given here) [26 mer PD]”: the Ki with HIV-1 RT was determined as 0.37 µM. Moreover, the IC50 worked out at 5 µM with HIV-1 RT, 18 µM in series [1] (setting [4]), 3.5 µM in series [1] (setting [5]) and 3.75 µM in the series on HIV-1 strain DV (setting [6]). The CC50 with SUP T1 cells [2] is 37 µM.
“5′-gtggtgggtgggtgggtggtgggtggtggttgtgggtgggtggtg-3′ [I100-07]” displayed an inhibition constant (Ki) on HIV-1 RT of 0.137 µM. Moreover, the IC50 on HIV-1 RT is 2.5 µM; in the series with HIV-1DV (SUP T1, HIV-1DV, four days), 0.55 µM; in series [1] (setting [4]), 4.25 µM; in series [1] (setting [5]), 0.8 µM; with HIV-1 strain DV (SUP T1, HIV-1DV, four days, read-out: IC50 Syn (syncytium inhibition)) it was 0.25 µM; in the series with HIV-1 strain DV (setting [6]) it was 0.25 µM. In addition, the “Percent p24 relative to infected untreated control, Day 7” value in the series with HIV-1DV (2.5 uM, drug removed day 4) is 15.9%. Further, the “Percent p24 relative to infected untreated control, Day 11” value with HIV-1DV (2.5 uM, drug removed day 4) was found to be 8.6%. Besides, in the series with HIV-1DV (2.5 uM, medium replaced day 4), the “Percent p24 relative to infected untreated control, Day 4” value worked out at 6.0%. The substance also returned a CC50 in the series with SUP T1 cells [3] above 50 µM. In addition, in series [1] (control experiment), the “inhibition of detection of immobilized gp120 by HRP-α-gp120 antibody” value was “did not inhibit”.
